Experimental data reported in article PMC8466238, “Development of High Affinity Calcitonin Analog Fragments Targeting Extracellular Domains of Calcitonin Family Receptors” (Biomolecules, 2021).
Like-named read-outs stand apart in the source and are kept apart here. Where a SMILES comes first, the peptide text is derived from it. Where no end group is shown, it is not given here. [ ]: non-standard residue; d: D form. Hyp = O=C(O)[C@@H]1C[C@@H](O)CN1

Columns and labels:
[1] = molecular target: T1, AMY receptor 2 ECD (RAMP2-CTR ECD fusion protein) (Homo sapiens, UniProt O60895+P30988); assay: FP competition peptide binding assay with AMY receptor 2 ECD, FITC-AC413(6–25) Y25P probe; conditions: Figure 5f; RAMP2-CTR ECD fusion protein 67 nM, FITC-AC413(6–25) Y25P 10 nM; mean ± SD of N = 3; read-out: pKI Mean ± SD (converted)
T1 construct: pHLsec/hRAMP2.55–140-(GSA)3-hCTR.34–141-H6 (H-pSL006); H6 (His6) (C); made in house; host or cells: HEK293T
Excerpt: (§1) The overall procedures of FP peptide binding assay with receptor ECDs and FITC-labeled peptide probes were previously described. […] A SpectraiD5 (Molecular Devices, San Jose, CA, USA) was used to measure fluorescence polarization/anisotropy. Background (reaction buffer only) was subtracted for anisotropy calculation. For the SpectraiD5, G factor (0.38 for FITC-sCT(22–32) and 0.41 for FITC-AC413(6–25) and FITC-AC413(6–25) Y25P) was used to correct the instrumental bias for anisotropy calculation. The polarization (mP) of the FITC-peptide probes only (No receptor ECD) was set close to 50 mP. For the saturation binding assay, the anisotropy values were re-calculated when total fluorescence intensity was changed by more than 10% as previously described. […] Anisotropy values were used to produce non-linear regression curves with PRISM 5.0 (GraphPad software, San Diego, CA, USA) as previously described. KI indicates affinity values obtained from competition binding assay and it was calculated from the non-linear regression curves of anisotropy by using equations previously described. Concentrations of the FITC-labeled peptide and the total receptor protein and the affinity of the FITC-labeled peptide for the receptor protein were incorporated into the equations for the KI calculation of the competitive peptide ligand. Two technical replicates were used for each receptor concentration in the peptide-binding curve. SEM of the anisotropy values of the two replicates at each receptor concentration were presented as error bars in the representative peptide-binding curves. When the error bars were shorter than the height of the symbol, they were omitted in the representative curves. At least three independent peptide binding experiments were performed to obtain three independent peptide-binding curves. Mean and standard deviation of peptide ligand affinity were calculated from them.

[2] = molecular target: T2, AMY receptor 1 ECD (RAMP1-CTR ECD fusion protein) (Homo sapiens, UniProt O60894+P30988); assay: FP competition peptide binding assay with AMY receptor 1 ECD, FITC-AC413(6–25) Y25P probe; conditions: Figure 5e; RAMP1-CTR ECD fusion protein 77 nM, FITC-AC413(6–25) Y25P 10 nM; mean ± SD of N = 3; read-out: pKI Mean ± SD (converted)
T2 construct: pHLsec/hRAMP1.24–111-(GSA)3-hCTR.34–141-H6 (H-pSL005); H6 (His6) (C); made in house; host or cells: HEK293T
Excerpt: as §1

[3] = molecular target: T3, AMY receptor 3 ECD (RAMP3-CTR ECD fusion protein) (Homo sapiens, UniProt O60896+P30988); assay: FP competition peptide binding assay with AMY receptor 3 ECD, FITC-AC413(6–25) Y25P probe; conditions: Figure 5g; RAMP3-CTR ECD fusion protein 252 nM, FITC-AC413(6–25) Y25P 10 nM; mean ± SD of N = 3; read-out: pKI Mean ± SD (converted)
T3 construct: pHLsec/hRAMP3.25–112-(GSA)3-hCTR.34–141-H6 (H-pSL001); H6 (His6) (C); made in house; host or cells: HEK293S GnTI−
T3 sequence (O60896+P30988 with tags, fused parts or gaps): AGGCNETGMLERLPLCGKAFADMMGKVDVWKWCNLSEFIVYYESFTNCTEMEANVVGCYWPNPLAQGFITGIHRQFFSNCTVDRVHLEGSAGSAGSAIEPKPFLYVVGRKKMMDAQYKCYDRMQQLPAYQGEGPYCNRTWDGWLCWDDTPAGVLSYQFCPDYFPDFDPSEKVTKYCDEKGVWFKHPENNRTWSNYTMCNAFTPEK
Excerpt: as §1

[4] = molecular target: T4, CTR ECD (Homo sapiens, UniProt P30988); assay: FP competition peptide binding assay with purified CTR ECD, FITC-sCT(22–32) probe; conditions: CTR ECD 500 nM, FITC-sCT(22–32) 10 nM
T4 construct: pHLsec/hCTR.34–141-H6 (H-pSL003); H6 (His6) (C); made in house; host or cells: HEK293T
T4 sequence (P30988 34-141): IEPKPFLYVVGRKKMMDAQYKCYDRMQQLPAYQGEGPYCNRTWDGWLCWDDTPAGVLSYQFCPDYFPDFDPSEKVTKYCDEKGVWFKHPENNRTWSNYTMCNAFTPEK
Excerpt: as §1

[5] = molecular target: T5, FITC-labeled AC413(6–25) with Y25P mutation (Y25P (stands in the printed letters), FITC-(Ahx) (aminohexanoic acid) on the N-terminus; C-terminal amide); assay: fluorescence polarisation; saturation binding: FITC-labeled peptide probe (10 nM) with rising receptor ECD concentrations; receptor ECD concentration at half of the maximal anisotropy; conditions: both partners purified
T5 construct: residues 6-25 of AC413, an antagonistic amylin peptide analog, with Y25P; peptide probe of the FP assay with the AMY receptor ECDs; also called FITC-AC413(6–25) Y25P; source: synthetic peptide (Genscript, HPLC-purified)
T5 peptide: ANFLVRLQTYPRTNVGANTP

[6] = Figure 4b experiment set, mean ± SD of N = 3 (N = 4 for sCT(22–32)) independent experiments, read-out: pKI Mean ± SD (converted)
[7] = Figure 1d experiment set, mean ± SD of N = 3 independent experiments, pKI = –log10[KI] (M)

Q: For “YPRTNTGSGTP-NH2 [sCT(22–32), reference compound]”, which Ki [1] is on record?
A: The Ki was 2820 nM.

Q: What about the Ki [2] of the same molecule?
A: Its Ki is 2570 nM.

Q: And the Ki [3]?
A: The Ki was 2570 nM.

Q: And the Ki [4, 6]?
A: Its Ki is 2.04e-06 M.

Q: What about the Ki [4, 7] of the same molecule?
A: Its Ki is 1.78e-06 M.

Q: How did the Ki [1] turn out when YPRTDTGPGTP-NH2 [sCT(22–32) N26D/S29P] was run?
A: The Ki was 468 nM.

Q: And the Ki [2]?
A: Its Ki is 380 nM.

Q: And the Ki [3]?
A: The Ki was 331 nM.

Q: And the Ki ([4]; Figure 3b experiment set, mean ± SD of N = 3 independent experiments, read-out: pKI Mean ± SD (converted))?
A: The Ki was 2.4e-07 M.

Q: What about the Ki [4, 7] of the same molecule?
A: The Ki was 3.16e-07 M.

Q: Which results are given for C[C@@H](O)[C@H](NC(=O)[C@H](CC(=O)O)NC(=O)[C@@H](NC(=O)[C@H](CCCNC(=N)N)NC(=O)[C@@H]1CCCN1C(=O)[C@@H](N)Cc1ccc(O)cc1)[C@@H](C)O)C(=O)NCC(=O)N1CCC[C@H]1C(=O)NCC(=O)N[C@H](C(=O)N1C[C@H](O)C[C@H]1C(N)=O)[C@@H](C)O [sCT(22–32) N26D/S29P/P32HYP] (H-YPRTDTGPGT[Hyp]-NH2)?
A: Ki [1]: 339 nM; Ki [2]: 123 nM; Ki [3]: 117 nM; Ki [4, 6]: 9.55e-08 M

Q: For C[C@@H](O)[C@H](NC(=O)[C@H](CC(N)=O)NC(=O)[C@@H](NC(=O)[C@H](CCCNC(=N)N)NC(=O)[C@@H]1CCCN1C(=O)[C@@H](N)Cc1ccc(O)cc1)[C@@H](C)O)C(=O)NCC(=O)N[C@@H](CO)C(=O)NCC(=O)N[C@H](C(=O)N1C[C@H](O)C[C@H]1C(N)=O)[C@@H](C)O [sCT(22–32) P32HYP] (H-YPRTNTGSGT[Hyp]-NH2), which Ki [1] is on record?
A: The Ki was 1410 nM.

Q: And the Ki [2]?
A: The Ki was 891 nM.

Q: And the Ki [3]?
A: Its Ki is 1000 nM.

Q: And the Ki [4, 6]?
A: Its Ki is 8.91e-07 M.

B1: RAMP3-CTR ECD fusion protein (hRAMP3.25–112-(GSA)3-hCTR.34–141-H6) (receptor, human)
chain: T3 sequence (O60896+P30988 with tags, fused parts or gaps)
notes: human receptor activity-modifying protein 3 (RAMP3), extracellular domain, residues 25-112; linker, printed as (GSA)3; human calcitonin receptor (CTR), extracellular domain, residues 34-141; Secreted from a pHLsec-based vector; also called AMY receptor 3 ECD; RAMP3 ECD-CTR ECD fusion protein; source: HEK293S GnTI-, transiently transfected (PEI), secreted to cell culture media, purified (IMAC, SEC)
Q: How did the “receptor ECD concentration that produced a half of the maximal anisotropy with the peptide probe” value [5] turn out when B1 was run?
A: The value was 252 nM.

B2: RAMP2-CTR ECD fusion protein (hRAMP2.55–140-(GSA)3-hCTR.34–141-H6) (receptor, human)
chain: GGTVKNYETAVQFCWNHYKDQMDPIEKDWCDWAMISRPYSTLRDCLEHFAELFDLGFPNPLAERIIFETHQIHFANCSLVQPTFSDGSAGSAGSAIEPKPFLYVVGRKKMMDAQYKCYDRMQQLPAYQGEGPYCNRTWDGWLCWDDTPAGVLSYQFCPDYFPDFDPSEKVTKYCDEKGVWFKHPENNRTWSNYTMCNAFTPEK
notes: human receptor activity-modifying protein 2 (RAMP2), extracellular domain, residues 55-140; linker, printed as (GSA)3; human calcitonin receptor (CTR), extracellular domain, residues 34-141; Secreted from a pHLsec-based vector; also called AMY receptor 2 ECD; RAMP2 ECD-CTR ECD fusion; source: HEK293T, transiently transfected, secreted to cell culture media, purified (IMAC, SEC)
Q: B2 was tested. Which “receptor ECD concentration that produced a half of the maximal anisotropy with the peptide probe” value [5] did it give?
A: Its value is 67 nM.

B3: RAMP1-CTR ECD fusion protein (hRAMP1.24–111-(GSA)3-hCTR.34–141-H6) (receptor, human)
chain: TTACQEANYGALLRELCLTQFQVDMEAVGETLWCDWGRTIRSYRELADCTWHMAEKLGCFWPNAEVDRFFLAVHGRYFRSCPISGRAVGSAGSAGSAIEPKPFLYVVGRKKMMDAQYKCYDRMQQLPAYQGEGPYCNRTWDGWLCWDDTPAGVLSYQFCPDYFPDFDPSEKVTKYCDEKGVWFKHPENNRTWSNYTMCNAFTPEK
notes: human receptor activity-modifying protein 1 (RAMP1), extracellular domain, residues 24-111; linker, printed as (GSA)3; human calcitonin receptor (CTR), extracellular domain, residues 34-141; Secreted from a pHLsec-based vector; also called AMY receptor 1 ECD; RAMP1 ECD-CTR ECD fusion; source: HEK293T, transiently transfected, secreted to cell culture media, purified (IMAC, SEC)
Q: Which “receptor ECD concentration that produced a half of the maximal anisotropy with the peptide probe” value [5] does the source give for B3 here?
A: The value was 77 nM.
